What all share (type): biochemical
Test [1] concerns the target PLK1 (Homo sapiens, UniProt P53350). As to the kind of experiment: PLK TR-FRET peptide assay, PLK1. As to conditions: GST-PLK1, 60 min reaction. Background: In TR-FRET formats the signal depends on donor and acceptor labels being close together.
The target in test [2] is PLK2 (Homo sapiens, UniProt Q9NYY3). Briefly: PLK TR-FRET peptide assay, PLK2. As to conditions: for IC50: PLK TR-FRET peptide assay, GST-PLK2, 60 min reaction, read-out: Plk2 IC50; for relative PLK2 activity of the enantiomers: compared with the opposite enantiomer.
PLK2, sequence (Q9NYY3 whole entry): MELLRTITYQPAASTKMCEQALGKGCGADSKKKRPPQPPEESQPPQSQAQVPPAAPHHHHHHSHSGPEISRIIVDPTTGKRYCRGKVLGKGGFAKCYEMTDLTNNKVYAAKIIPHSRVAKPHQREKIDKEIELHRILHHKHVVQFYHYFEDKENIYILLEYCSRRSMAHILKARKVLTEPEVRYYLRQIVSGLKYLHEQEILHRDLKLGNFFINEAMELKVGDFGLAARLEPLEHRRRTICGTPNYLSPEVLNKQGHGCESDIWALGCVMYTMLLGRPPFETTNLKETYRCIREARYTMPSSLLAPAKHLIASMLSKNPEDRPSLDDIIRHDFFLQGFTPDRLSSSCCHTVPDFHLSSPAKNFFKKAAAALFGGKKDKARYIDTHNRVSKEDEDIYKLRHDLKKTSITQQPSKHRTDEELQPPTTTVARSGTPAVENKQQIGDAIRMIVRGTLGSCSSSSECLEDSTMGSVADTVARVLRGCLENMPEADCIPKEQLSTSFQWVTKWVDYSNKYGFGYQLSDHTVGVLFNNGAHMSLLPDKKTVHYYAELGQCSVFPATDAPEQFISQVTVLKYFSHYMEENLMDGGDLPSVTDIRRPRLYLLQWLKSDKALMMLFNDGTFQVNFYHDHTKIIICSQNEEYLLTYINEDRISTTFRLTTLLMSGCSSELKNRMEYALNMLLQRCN
Test [3] addresses PLK3 (Homo sapiens, UniProt Q9H4B4). As to the kind of experiment: PLK TR-FRET peptide assay, PLK3. The settings on record: GST-PLK3, 15 min reaction, read-out: Plk3 IC50.

From patent US8541418B2, “Inhibitors of polo-like kinase” (Elan Pharmaceutical, Inc., priority 2009, dated 2013) come the findings set out here.

For orientation: IC50 means the midpoint of a concentration-inhibition curve.

PLK3, sequence (Q9H4B4 whole entry): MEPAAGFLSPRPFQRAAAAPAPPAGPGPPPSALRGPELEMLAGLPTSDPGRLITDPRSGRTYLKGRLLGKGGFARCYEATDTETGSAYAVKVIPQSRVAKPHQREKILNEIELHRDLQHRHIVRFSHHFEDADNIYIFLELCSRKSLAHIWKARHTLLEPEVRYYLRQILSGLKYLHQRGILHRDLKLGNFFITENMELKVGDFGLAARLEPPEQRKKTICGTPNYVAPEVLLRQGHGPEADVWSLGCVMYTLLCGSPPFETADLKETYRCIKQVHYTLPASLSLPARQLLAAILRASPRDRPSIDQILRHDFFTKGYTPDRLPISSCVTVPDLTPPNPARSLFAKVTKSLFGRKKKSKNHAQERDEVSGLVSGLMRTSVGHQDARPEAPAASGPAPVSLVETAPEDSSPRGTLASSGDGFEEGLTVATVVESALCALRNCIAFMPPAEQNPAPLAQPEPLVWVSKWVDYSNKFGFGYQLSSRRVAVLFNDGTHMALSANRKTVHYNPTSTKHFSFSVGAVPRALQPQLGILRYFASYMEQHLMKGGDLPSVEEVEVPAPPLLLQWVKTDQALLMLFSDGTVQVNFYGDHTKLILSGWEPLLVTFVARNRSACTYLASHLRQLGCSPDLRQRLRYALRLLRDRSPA
PLK1, sequence (P53350 whole entry): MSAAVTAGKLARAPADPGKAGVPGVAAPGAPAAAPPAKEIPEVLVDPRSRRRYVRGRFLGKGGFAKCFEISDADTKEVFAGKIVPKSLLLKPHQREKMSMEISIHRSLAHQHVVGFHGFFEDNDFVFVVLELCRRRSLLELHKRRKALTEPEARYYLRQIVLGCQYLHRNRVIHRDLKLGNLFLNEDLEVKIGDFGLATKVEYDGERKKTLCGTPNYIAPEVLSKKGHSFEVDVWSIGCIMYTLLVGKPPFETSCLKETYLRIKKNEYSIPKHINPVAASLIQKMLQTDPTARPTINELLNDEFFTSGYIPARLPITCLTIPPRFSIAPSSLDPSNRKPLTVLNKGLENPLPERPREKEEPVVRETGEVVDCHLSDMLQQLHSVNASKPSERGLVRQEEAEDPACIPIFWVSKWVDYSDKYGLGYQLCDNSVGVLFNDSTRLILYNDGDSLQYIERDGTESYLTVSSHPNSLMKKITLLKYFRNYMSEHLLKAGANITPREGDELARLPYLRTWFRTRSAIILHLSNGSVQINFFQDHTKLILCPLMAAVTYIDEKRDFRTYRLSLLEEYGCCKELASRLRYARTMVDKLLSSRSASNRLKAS

As to `[2H]C([2H])([2H])N1C(=O)[C@@H](C([2H])([2H])C([2H])([2H])[2H])N(C([2H])(C([2H])([2H])[2H])C([2H])([2H])[2H])c2nc(-n3ccnc3-c3cccc(F)c3)ncc21` [Example 202, (R)-7-perdeuteroethyl-2-(2-(3-fluorophenyl)-1H-imidazol-1-yl)-8-perdeuteroisopropyl-5-trideuteromethyl-7,8-dihydropteridin-6(5H)-one], the results for the 50% inhibitory concentration (IC50) in test [1], in test [2] and in test [3] were less than 1 µM, less than 1 µM and 1 to 10 µM, respectively. For the same compound, the “relative PLK2 activity of the enantiomers” value in test [2] is recorded as “more active compound”.

For the compound `CC[C@@H]1C(=O)N(C)c2cnc(-c3c[nH]nc3-c3ccc(C(F)(F)F)cc3)nc2N1C(C)C` [Example 167, (R)-7-ethyl-8-isopropyl-5-methyl-2-(3-(4-(trifluoromethyl)phenyl)-1H-pyrazol-4-yl)-7,8-dihydropteridin-6(5H)-one], the IC50 is 1 to 10 µM in test [1], less than 1 µM in test [2] and 10 to 50 µM in test [3].

With `CC[C@@H]1C(=O)N(C)c2cnc(-n3ccnc3-c3ccc(F)cn3)nc2N1C1CCCC1` [Example 271, (R)-8-cyclopentyl-7-ethyl-2-(2-(5-fluoropyridin-2-yl)-1H-imidazol-1-yl)-5-methyl-7,8-dihydropteridin-6(5H)-one], the values for the IC50 in test [1], in test [2] and in test [3] were less than 1 µM, less than 1 µM and 1 to 10 µM, respectively.

Consider `[2H]C([2H])([2H])N1C(=O)C(C([2H])([2H])C([2H])([2H])[2H])N(C([2H])(C([2H])([2H])[2H])C([2H])([2H])[2H])c2nc(-n3ccnc3-c3cccc(F)c3)ncc21` (racemic) [Example 180, 7-perdeuteroethyl-2-(2-(3-fluorophenyl)-1H-imidazol-1-yl)-8-perdeuteroisopropyl-5-trideuteromethyl-7,8-dihydropteridin-6(5H)-one], for which the IC50 in test [1] is less than 1 µM; in test [2], less than 1 µM; in test [3] it was 1 to 10 µM.

Take `CC[C@@H]1C(=O)N(C)c2cnc(-n3ccnc3-c3ccc(F)cc3F)nc2N1CCC(F)(F)F` [Example 277, (R)-2-(2-(2,4-difluorophenyl)-1H-imidazol-1-yl)-7-ethyl-5-methyl-8-(3,3,3-trifluoropropyl)-7,8-dihydropteridin-6(5H)-one]: the IC50 in test [1] is 1 to 10 µM; in test [2] it was less than 1 µM; in test [3], 1 to 10 µM.

Take `CC[C@@H]1C(=O)N(C)c2cnc(-n3ccnc3-c3cccc(Cl)c3)nc2N1C(C)C` [Example 204, (R)-2-(2-(3-chlorophenyl)-1H-imidazol-1-yl)-7-ethyl-8-isopropyl-5-methyl-7,8-dihydropteridin-6(5H)-one]: the IC50 is less than 1 µM in test [1], less than 1 µM in test [2] and 1 to 10 µM in test [3].

For `CC[C@@]12CCCN1c1nc(-n3ccnc3-c3cccc(OC(F)(F)F)c3)ncc1N(C)C2=O` [Example 251, (S)-6a-ethyl-5-methyl-2-(2-(3-(trifluoromethoxy)phenyl)-1H-imidazol-1-yl)-6a,7,8,9-tetrahydropyrrolo[2,1-h]pteridin-6(5H)-one], the IC50 was 10 to 50 µM in test [1], less than 1 µM in test [2] and greater than 50 µM in test [3].

For the compound `CC[C@@H]1C(=O)N(C)c2cnc(-n3ccnc3-c3cc(Cl)cc(Cl)c3)nc2N1C(C)C` [Example 185, (R)-2-(2-(3,5-dichlorophenyl)-1H-imidazol-1-yl)-7-ethyl-8-isopropyl-5-methyl-7,8-dihydropteridin-6(5H)-one], the IC50 in test [1] was 1 to 10 µM; in test [2] it was less than 1 µM; in test [3] it was 1 to 10 µM.

For the compound `CC[C@@H]1C(=O)N(C)c2cnc(-n3ccnc3-c3ccc(F)cc3)nc2N1CC1CC1` [Example 322, (R)-8-(cyclopropylmethyl)-7-ethyl-2-(2-(4-fluorophenyl)-1H-imidazol-1-yl)-5-methyl-7,8-dihydropteridin-6(5H)-one], the half-maximal inhibitory concentration (IC50) in test [1] was 1 to 10 µM; in test [2] it was less than 1 µM; in test [3], 1 to 10 µM.

For the compound `CC[C@]1(C)C(=O)N(C)c2cnc(-c3cn[nH]c3-c3nccs3)nc2N1CCC(F)(F)F` [Example 310, (R)-7-ethyl-5,7-dimethyl-2-(5-(thiazol-2-yl)-1H-pyrazol-4-yl)-8-(3,3,3-trifluoropropyl)-7,8-dihydropteridin-6(5H)-one], the IC50 in test [1] is less than 1 µM; in test [2], less than 1 µM; in test [3], greater than 50 µM.

As for `CC[C@@H]1C(=O)N(C)c2cnc(-n3ccnc3N3C(=O)CCC3=O)nc2N1C1CCC1` [Example 112, (R)-1-(1-(8-cyclobutyl-7-ethyl-5-methyl-6-oxo-5,6,7,8-tetrahydropteridin-2-yl)-1H-imidazol-2-yl)pyrrolidine-2,5-dione], the IC50 in test [1] is 10 to 50 µM; in test [2], 10 to 50 µM; in test [3] it was greater than 50 µM.

In the case of `CC[C@@H]1C(=O)N(C)c2cnc(-n3ccnc3-n3cccn3)nc2N1C1CCCC1` [Example 89, (R)-2-(2-(1H-pyrazol-1-yl)-1H-imidazol-1-yl)-8-cyclopentyl-7-ethyl-5-methyl-7,8-dihydropteridin-6(5H)-one], the IC50 in test [1], in test [2] and in test [3] was less than 1 µM throughout.

Consider `CC[C@@H]1C(=O)N(C)c2cnc(-n3ccnc3-c3ccccc3)nc2N1C1COC1` [Example 335, (R)-7-ethyl-5-methyl-8-(oxetan-3-yl)-2-(2-phenyl-1H-imidazol-1-yl)-7,8-dihydropteridin-6(5H)-one], for which the half-inhibitory concentration (IC50) was 1 to 10 µM in test [1], less than 1 µM in test [2] and 10 to 50 µM in test [3].

For the compound `CC[C@@H]1C(=O)N(C)c2cnc(-c3ccncc3NS(C)(=O)=O)nc2N1C(C)C` [Example 119, (R)—N-(4-(7-ethyl-8-isopropyl-5-methyl-6-oxo-5,6,7,8-tetrahydropteridin-2-yl)pyridin-3-yl)methanesulfonamide], the IC50 in test [1] is greater than 50 µM; in test [2], 1 to 10 µM; in test [3], greater than 50 µM.

Regarding `CC[C@@]12CCCN1c1nc(-n3ccnc3)ncc1N(C)C2=O` [Example 285, (S)-6a-ethyl-2-(1H-imidazol-1-yl)-5-methyl-6a,7,8,9-tetrahydropyrrolo[2,1-h]pteridin-6(5H)-one], the results for the concentration for half-maximal inhibition (IC50) in test [1], in test [2] and in test [3] were greater than 50 µM, 10 to 50 µM and greater than 50 µM, respectively.

For the compound `CN1C(=O)C2(CC(F)(F)F)CCCN2c2nc(-n3ccnc3-c3ccccc3)ncc21` (centres unmarked) [Example 339, 5-methyl-2-(2-phenyl-1H-imidazol-1-yl)-6a-(2,2,2-trifluoroethyl)-6a,7,8,9-tetrahydropyrrolo[2,1-h]pteridin-6(5H)-one], the 50% inhibitory concentration (IC50) in test [1] was 10 to 50 µM; in test [2] it was less than 1 µM; in test [3], 10 to 50 µM.

On to `CC[C@@]12CCCCN1c1nc(-n3ccnc3-c3ccc(F)cc3F)ncc1N(C)C2=O` [Example 269, (S)-2-(2-(2,4-difluorophenyl)-1H-imidazol-1-yl)-6a-ethyl-5-methyl-7,8,9,10-tetrahydro-5H-pyrido[2,1-h]pteridin-6(6aH)-one], for which the values for the IC50 in test [1], in test [2] and in test [3] were 10 to 50 µM, less than 1 µM and 10 to 50 µM, respectively. Further, the “relative PLK2 activity of the enantiomers” value in test [2] is listed as “more active compound”.

For the compound `[2H]C([2H])([2H])N1C(=O)C(C([2H])([2H])C([2H])([2H])[2H])N(C([2H])(C([2H])([2H])[2H])C([2H])([2H])[2H])c2nc(-c3c[nH]nc3-c3ccccc3)ncc21` (centres unmarked) [Example 165, 7-perdeuteroethyl-8-perdeuteroisopropyl-5-trideuteromethyl-2-(3-phenyl-1H-pyrazol-4-yl)-7,8-dihydropteridin-6(5H)-one], the values for the IC50 in test [1], in test [2] and in test [3] were less than 1 µM, less than 1 µM and 1 to 10 µM, respectively.

With `CC[C@@H]1C(=O)N(C)c2cnc(-c3ccncc3CNC(=O)OC)nc2N1C1CCCC1` [Example 121, (R)-methyl (4-(8-cyclopentyl-7-ethyl-5-methyl-6-oxo-5,6,7,8-tetrahydropteridin-2-yl)pyridin-3-yl)methylcarbamate], the figures for the concentration for half-maximal inhibition (IC50) in test [1], in test [2] and in test [3] were 10 to 50 µM, 1 to 10 µM and 10 to 50 µM, respectively.

In the case of `CC[C@@H]1C(=O)N(C)c2cnc(-c3ccncc3CNS(C)(=O)=O)nc2N1C(C)C` [Example 131, (R)—N-((4-(7-ethyl-8-isopropyl-5-methyl-6-oxo-5,6,7,8-tetrahydropteridin-2-yl)pyridin-3-yl)methyl)methanesulfonamide], the values for the IC50 in test [1], in test [2] and in test [3] were greater than 50 µM, 10 to 50 µM and greater than 50 µM, respectively.

Regarding `[2H]C([2H])([2H])N1C(=O)[C@@H](C([2H])([2H])C([2H])([2H])[2H])N(C([2H])(C([2H])([2H])[2H])C([2H])([2H])[2H])c2nc(-n3ccnc3-c3cc(F)cc(F)c3)ncc21` [Example 179, (R)-2-(2-(3,5-difluorophenyl)-1H-imidazol-1-yl)-7-perdeuteroethyl-8-perdeuteroisopropyl-5-trideuteromethyl-7,8-dihydropteridin-6(5H)-one], the IC50 in test [1] is less than 1 µM; in test [2], less than 1 µM; in test [3], 1 to 10 µM.

As to `CC[C@@H]1C(=O)N(C)c2cnc(-n3cccn3)nc2N1C1CCCC1` [Example 42, (R)-8-cyclopentyl-7-ethyl-5-methyl-2-(1H-pyrazol-1-yl)-7,8-dihydropteridin-6(5H)-one], the IC50 in test [1] was 1 to 10 µM; in test [2] it was less than 1 µM; in test [3], 10 to 50 µM.

On to `CC[C@@H]1C(=O)N(C)c2cnc(-c3scnc3-c3ccn[nH]3)nc2N1C(C)C` [Example 348, (R)-2-(4-(1H-pyrazol-5-yl)thiazol-5-yl)-7-ethyl-8-isopropyl-5-methyl-7,8-dihydropteridin-6(5H)-one], for which the IC50 was 1 to 10 µM in test [1], less than 1 µM in test [2] and 1 to 10 µM in test [3].

Take `CCC1C(=O)N(C)c2cnc(-n3cc[n+](C)c3-c3ccccc3)nc2N1NC` (centres unmarked) [Example 284, 1-(7-ethyl-5-methyl-8-(methylamino)-6-oxo-5,6,7,8-tetrahydropteridin-2-yl)-3-methyl-2-phenyl-1H-imidazol-3-ium]: the IC50 in test [1], in test [2] and in test [3] was greater than 50 µM in each case.
